Data on 9 compounds can be found in patent publication US9018175B2 (Takeda GmbH, priority 2009, dated 2015).

In experiment [1] the target is T1, PDE4B1 (Homo sapiens, UniProt Q07343).
T1 construct: made in house; host or cells: SF21 insect cells (baculovirus; pCR-Bac vector)
Kind of experiment: Inhibition of PDE4B1 activity (SPA, [3H]cAMP). Particulars: recombinant PDE4B1 expressed in SF21 cells; 0.5 pM [sic] cAMP; values given as bins; read-out: PDE4B1 inhibitory values measured as −logIC50 (converted). In kind it is biochemical. Here is the method:
The PDE4B1 (GB no. L20966) was a gift of Prof. M. Conti (Stanford University, USA). It was amplified from the original plasmid (pCMV5) via PCR with primers Rb18 (5′-[…]-3′) and Rb10 (5′-[…]-3′) and cloned into the pCR-Bac vector (Invitrogen, Groningen, NL).
The recombinant baculovirus was prepared by means of homologous recombination in SF9 insect cells. The expression plasmids were cotransfected with Baculo-Gold DNA (Pharmingen, Hamburg) using a standard protocol (Pharmingen, Hamburg). Wt virus-free recombinant virus supernatants were selected using plaque assay methods. After that, high-titre virus supernatants were prepared by amplifying 3 times. PDE4B1 was expressed in SF21 cells by infecting 2×10^6 cells/ml with an MOI (multiplicity of infection) between 1 and 10 in the serum-free medium Insect Express Sf9-S2 (PAA, Pasching, Austria). The cells were cultured at 28° C. for 48-72 hours, after which they were pelleted for 5-10 min at 1000×g and 4° C.
The SF21 insect cells were resuspended, at a concentration of approx. 10^7 cells/ml, in ice-cold (4° C.) homogenization buffer (20 mM Tris, pH 8.2, containing the following additions: 140 mM NaCl, 3.8 mM KCl, 1 mM EGTA, 1 mM MgCl2, 10 mM e-mercaptoethanol, 2 mM benzamidine, 0.4 mM Pefablock, 10 pM leupeptin, 10 pM pepstatin A, 5 pM trypsin inhibitor) and disrupted by ultrasonication. The homogenate was then centrifuged for 10 min at 1000, g and the supernatant was stored at −80° C. until subsequent use (see below). The protein content was determined by the Bradford method (BioRad, Munich) using BSA as the standard.
PDEB1 activities were measured in a 96-well platform using SPA (scintillation proximity assay) yttrium silicate beads (RPNQ1050 from GE Healthcare). In a first step the PDE activity operates hydrolysis of either [^3H] cAMP (substrate) into [^3H] 5′AMP. In a second step substrate and product are distinguished following addition of SPA yttrium silicate beads. Indeed, in the presence of zinc sulphate the linear [^3H] […] Close proximity of bound [^3H] […] The test volume is 100 pl and contains 20 mM Tris buffer (pH 7.4), 0.1 mg/ml of BSA, 5 mM Mg^2+, […] (including about 50,000 cpm of [3H]cAMP), 1 pl of the respective substance dilution in DMSO and sufficient recombinant PDE (1000, g supernatant, see above) to ensure that 10-20% of the cAMP is converted under the said experimental conditions. […] After a preincubation of 5 min at 37° C., the reaction is started by adding the substrate (cAMP) and the assays are incubated for a further 15 min; after that, they are stopped by adding SPA beads (50 pl). In accordance with the manufacturer's instructions, the SPA beads had previously been resuspended in water, but were then diluted 1:3 (v/v) in water; the diluted solution also contains 3 mM IBMX to ensure a complete PDE activity stop. After the beads have been sedimented (>30 min), the MTP's are analyzed in commercially available luminescence detection devices. The corresponding IC50 values of the compounds for the inhibition of PDE4B1 activity are determined from the concentration-effect curves by means of non-linear regression.

Experiment [2] has as its target T2, human PDE5 (Homo sapiens, UniProt O76074).
T2 construct: from tissue; host or cells: human platelets from fresh donor blood (10,000 g supernatant of sonicated platelets)
As to the kind of experiment: Inhibition of PDE5 activity (SPA, [3H]cGMP, platelet lysate). In kind it is biochemical. Particulars: PDE5 from human platelet lysate; values given as bins; read-out: PDE5A inhibitory values measured as −logIC50 (converted). The method, then:
As a source for human PDE5, platelets are used. For that purpose, 150 ml fresh blood from human donors anticoagulated with citrate [final concentration 0.3% (w/v)] is centrifuged at 200 g for 10 min to obtain the so-called platelet-rich-plasma (PRP) as a supernatant. 1/10 volume of ACD solution (85 mM Na3-citrate, 111 mM D-glucose, 71 mM citric acid, pH 4.4) is added to 9/10 volume of PRP. After centrifugation (1,400 g, 10 min) the cell pellet is resuspended in 3 ml homogenization buffer (NaCl 140 mM, KCl 3.8 mM, EGTA (ethylene glycol tetraacetic acid) 1 mM, MgCl2 1 mM, Tris-HCl 20 mM, beta-mercaptoethanol 1 mM, pH 8.2) plus protease-inhibitor mix giving rise to the final concentrations of 0.5 mM Pefablock (Roche), 10 μM Leupeptin, 5 μM Trypsininhibitor, 2 mM Benzamidin and 10 μM Pepstatin A. The suspension is sonified and thereafter centrifuged for 15 min at 10,000 g. The resulting supernatant (platelet lysate) is used for enzymatic testings.
PDE5 activities were measured in a 96-well platform using SPA (scintillation proximity assay) yttrium silicate beads (RPNQ1050 from GE Healthcare). In a first step the PDE activity operates hydrolysis of either [^3H] cGMP (substrate) into [^3H] 5′GMP. In a second step substrate and product are distinguished following addition of SPA yttrium silicate beads. Indeed, in the presence of zinc sulphate the linear [^3H] […] Close proximity of bound [^3H] […] The test volume is 100 pl and contains 20 mM Tris buffer (pH 7.4), 0.1 mg of BSA (bovine serum albumin)/ml, 5 mM Mg^2+, 1 μM motapizone (PDE3 Inhibitor), 10 nM PDE2 inhibitor 2-(3,4-dimethoxybenzyl)-7-[(1R,2R)-2-hydroxy-1-(2-phenylethyl)propyl]-5-methylimidazo[5,1-f][1,2,4]triazin-4(3H)-one, […] (cyclic guanosine monophosphate) (including about 50,000 cpm of [3H]cGMP as a tracer), 1 pl of the respective compound dilution in dimethylsulfoxide (DMSO) and sufficient PDE5-containing platelet lysat (10,000, g supernatant, see above) to ensure that 10-20 wt % of the cGMP is converted under the said experimental conditions. […] After a preincubation of 5 min at 37° C., the reaction is started by adding the substrate (cGMP) and the assay is incubated for a further 15 min; after that, it is stopped by adding SPA beads (50 pl). In accordance with the manufacturer's instructions, the SPA beads had previously been resuspended in water, but are then diluted 1:3 (v/v) in water; the diluted solution also contains 3 mM […]3-isobutyl-1-methylxanthine (IBMX) to ensure a complete PDE activity stop. After the beads have been sedimented (>30 min), the MTP's are analyzed in commercially available luminescence detection devices. The corresponding IC50 values of the compounds for the inhibition of PDE activity are determined from the concentration-effect curves by means of non-linear regression.

T1 sequence (Q07343 whole entry): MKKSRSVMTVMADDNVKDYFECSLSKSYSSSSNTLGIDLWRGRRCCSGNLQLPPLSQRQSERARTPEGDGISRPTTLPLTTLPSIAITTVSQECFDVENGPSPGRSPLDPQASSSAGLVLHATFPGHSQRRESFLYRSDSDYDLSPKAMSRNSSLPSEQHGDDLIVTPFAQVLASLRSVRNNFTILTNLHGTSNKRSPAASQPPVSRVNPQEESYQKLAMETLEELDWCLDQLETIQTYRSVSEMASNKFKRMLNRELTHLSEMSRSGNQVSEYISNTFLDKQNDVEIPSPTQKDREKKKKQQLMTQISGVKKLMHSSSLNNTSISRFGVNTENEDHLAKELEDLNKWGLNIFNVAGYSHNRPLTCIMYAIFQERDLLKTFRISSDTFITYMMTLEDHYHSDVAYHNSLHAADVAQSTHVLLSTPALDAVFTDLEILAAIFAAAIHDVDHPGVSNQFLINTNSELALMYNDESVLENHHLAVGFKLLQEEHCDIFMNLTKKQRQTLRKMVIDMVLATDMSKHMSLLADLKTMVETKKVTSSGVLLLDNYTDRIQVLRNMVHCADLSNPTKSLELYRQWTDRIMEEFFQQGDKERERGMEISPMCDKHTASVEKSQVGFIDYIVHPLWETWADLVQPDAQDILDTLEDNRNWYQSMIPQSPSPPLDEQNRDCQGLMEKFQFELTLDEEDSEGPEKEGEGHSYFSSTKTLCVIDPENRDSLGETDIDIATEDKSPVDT

Consider `CCOc1cc2c(cc1OC)C(c1ccc(C(=O)N3CCC(n4c(=O)c5sc(-c6ccccc6)cc5n(Cc5nc(C)cs5)c4=O)CC3)cc1)=N[C@@H]1CCSC[C@H]21` [Example 13, 3-[1-({4-[(4aR,10bR)-9-ethoxy-8-methoxy-3,4,4a,10b-tetrahydro-1H-thiopyrano[4,3-c]isoquinolin-6-yl]phenyl}carbonyl)piperidin-4-yl]-1-[(4-methyl-1,3-thiazol-2-yl)methyl]-6-phenylthieno[3,2-d]pyrimidine-2,4(1H,3H)-dione], for which the IC50 was 0.001 to 0.01 µM in experiment [1] and above 0.1 µM in experiment [2].
The matching figures for `CCOc1cc2c(cc1OC)C(c1ccc(C(=O)N3CCC(n4c(=O)c5sc(-c6ccccc6)cc5n(Cc5cnc(CC)o5)c4=O)CC3)cc1)=N[C@@H]1CCSC[C@H]21` [Example 9, 3-[1-({4-[(4aR,10bR)-9-ethoxy-8-methoxy-3,4,4a,10b-tetrahydro-1H-thiopyrano[4,3-c]isoquinolin-6-yl]phenyl}carbonyl)piperidin-4-yl]-1-[(2-ethyl-1,3-oxazol-5-yl)methyl]-6-phenylthieno[3,2-d]pyrimidine-2,4(1H,3H)-dione]: 0.001 to 0.01 µM and 0.01 to 0.1 µM.
In the case of `CCOc1cc2c(cc1OC)C(c1ccc(C(=O)N3CCC(n4c(=O)c5sc(-c6ccccc6)cc5n(Cc5nccn5C)c4=O)CC3)cc1)=N[C@@H]1CCSC[C@H]21` [Example 53, 3-[1-({4-[(4aR,10bR)-9-ethoxy-8-methoxy-3,4,4a,10b-tetrahydro-1H-thiopyrano[4,3-c]isoquinolin-6-yl]phenyl}carbonyl)piperidin-4-yl]-1-[(1-methyl-1H-imidazol-2-yl)methyl]-6-phenylthieno[3,2-d]pyrimidine-2,4(1H,3H)-dione], the IC50 in experiment [1] is below 0.001 µM; in experiment [2], above 0.1 µM.
The matching figures for `CCOc1cc2c(cc1OC)C(c1ccc(C(=O)N3CCC(n4c(=O)c5sc(-c6ccc(F)cc6OC)cc5n(Cc5nc(CC)no5)c4=O)CC3)cc1)=N[C@@H]1CCSC[C@H]21` [Example 43, 3-[1-({4-[(4aR,10bR)-9-ethoxy-8-methoxy-3,4,4a,10b-tetrahydro-1H-thiopyrano[4,3-c]isoquinolin-6-yl]phenyl}carbonyl)piperidin-4-yl]-1-[(3-ethyl-1,2,4-oxadiazol-5-yl)methyl]-6-(4-fluoro-2-methoxyphenyl)thieno[3,2-d]pyrimidine-2,4(1H,3H)-dione]: 0.001 to 0.01 µM and 0.01 to 0.1 µM.
On to `CCOc1cc2c(cc1OC)C(c1ccc(C(=O)N3CCC(n4c(=O)c5sc(-c6ccccc6)cc5n(Cc5nc(COC)no5)c4=O)CC3)cc1)=N[C@@H]1CCSC[C@H]21` [Example 15, 3-(1-{4-[(4aR,10bR)-9-ethoxy-8-methoxy-3,4,4a,10b-tetrahydro-1H-thiopyrano[4,3-c]isoquinolin-6-yl]benzoyl}piperidin-4-yl)-1-{[3-(methoxymethyl)-1,2,4-oxadiazol-5-yl]methyl}-6-phenylthieno[3,2-d]pyrimidine-2,4(1H,3H)-dione], for which the IC50 in experiment [1] was 0.001 to 0.01 µM; in experiment [2], below 0.01 µM.
For `CCOc1cc2c(cc1OC)C(c1cccc(C(=O)N3CCC(n4c(=O)c5sc(-c6ccc7c(c6)OCO7)cc5n(Cc5nnn(CC)n5)c4=O)CC3)c1)=N[C@@H]1CCSC[C@H]21` [Example 31, 6-(1,3-benzodioxol-5-yl)-3-[1-({3-[(4aR,10bR)-9-ethoxy-8-methoxy-3,4,4a,10b-tetrahydro-1H-thiopyrano[4,3-c]isoquinolin-6-yl]phenyl}carbonyl)piperidin-4-yl]-1-[(2-ethyl-2H-tetrazol-5-yl)methyl]thieno[3,2-d]pyrimidine-2,4(1H,3H)-dione] the same measures were above 0.01 µM and below 0.01 µM.
For `CCOc1cc2c(cc1OC)C(c1ccc(C(=O)N3CCC(n4c(=O)c5sc(-c6ccccc6)cc5n(Cc5nnnn5COC)c4=O)CC3)cc1)=N[C@@H]1CCSC[C@H]21` [Example 29, 3-[1-({4-[(4aR,10bR)-9-ethoxy-8-methoxy-3,4,4a,10b-tetrahydro-1H-thiopyrano[4,3-c]isoquinolin-6-yl]phenyl}carbonyl)piperidin-4-yl]-1-{[1-(methoxymethyl)-1H-tetrazol-5-yl]methyl}-6-phenylthieno[3,2-d]pyrimidine-2,4(1H,3H)-dione] the same measures were below 0.001 µM and below 0.01 µM.
Turning to `CCOc1cc2c(cc1OC)C(c1cccc(C(=O)N3CCC(n4c(=O)c5sc(-c6cc(F)ccc6OC)cc5n(Cc5nnn(CC)n5)c4=O)CC3)c1)=N[C@@H]1CCSC[C@H]21` [Example 35, 3-[1-({3-[(4aR,10bR)-9-ethoxy-8-methoxy-3,4,4a,10b-tetrahydro-1H-thiopyrano[4,3-c]isoquinolin-6-yl]phenyl}carbonyl)piperidin-4-yl]-1-[(2-ethyl-2H-tetrazol-5-yl)methyl]-6-(5-fluoro-2-methoxyphenyl)thieno[3,2-d]pyrimidine-2,4(1H,3H)-dione], the IC50 in experiment [1] is 0.001 to 0.01 µM; in experiment [2] it was below 0.01 µM.
For `CCOc1cc2c(cc1OC)C(c1ccc(C(=O)N3CCC(n4c(=O)c5sc(-c6ccc7c(c6)OCO7)cc5n(Cc5nc(CC)no5)c4=O)CC3)cc1)=N[C@@H]1CCSC[C@H]21` [Example 46, 6-(1,3-benzodioxol-5-yl)-3-[1-({4-[(4aR,10bR)-9-ethoxy-8-methoxy-3,4,4a,10b-tetrahydro-1H-thiopyrano[4,3-c]isoquinolin-6-yl]phenyl}carbonyl)piperidin-4-yl]-1-[(3-ethyl-1,2,4-oxadiazol-5-yl)methyl]thieno[3,2-d]pyrimidine-2,4(1H,3H)-dione] the same measures were 0.001 to 0.01 µM and below 0.01 µM.
